Laboratory results as given in patent US20210017499A1, “SILOXANE POLYMER-BASED CANCER STEM CELL PREPARATION METHOD” (KOREA ADVANCED INSTITUTE OF SCIENCE AND TECHNOLOGY, priority 2019, published 2021).

Key:
Test in all cases: Cell viability for doxorubicin (WST-1)
Assay type in all cases: cell-based, human
[1] = tested on: ssiCSC (SKOV3, MCF-7, Hep3B and SW480); details: Dox of 50 μM, 24 hours, vs 2D control group
Description: (§1) ssiCSC spheroids prepared from different kinds of cancer cells (SKOV3, MCF-7, Hep3B and SW480) were isolated using trypsin (TrypLE Express, Gibco), and the isolated cells were washed with D-PBS twice. The ssiCSC was plated on a 96-well plate (1×10^4 cells/well) and was cultured in a cell growth medium at 37° C. for 24 hours. Then, the medium was removed, and a new medium comprising various concentrations of doxorubicin was added to each well and cultured for 24 hours. Next, each well was washed with D-PBS and was replaced with a new cell growth medium of 100 μl, and then WST-1 cell proliferation reagent (Roche) of 10 μl was added and cultured for 4 hours. Then, the absorbance at 450 nm (standard wavelength, 600 nm) was measured using a microplate reader (Molecular Devices).
(§2) In addition, the drug resistance of ssiCSC for doxorubicin (DOX) known as an anti-cancer agent was confirmed. Specifically, ssiCSC spheroids prepared by culturing on the pV4D4 surface for 8 days were isolated to single cells, and the cell was cultured on the conventional TCP surface to a 2D single layer, and then DOX at various concentrations was treated for 24 hours.

SKOV3-ssiCSC = details: DOX at various concentrations, 24 hours
Description: as §1, §2

SW480-ssiCSC = tested on: SW480-ssiCSC
Description: as §1, §2

## COc1cccc2c1C(=O)c1c(O)c3c(c(O)c1C2=O)C[C@@](O)(C(=O)CO)C[C@@H]3O[C@H]1C[C@H](N)[C@H](O)[C@H](C)O1 [Dox, doxorubicin]
[1]
  drug resistance (cell viability): higher resistance
SKOV3-ssiCSC
  drug resistance (cell viability): complete resistance
SW480-ssiCSC; DOX at various concentrations, 24 hours
  drug resistance (cell viability): complete resistance
SW480-ssiCSC; subcultured on the TCP surface twice
  drug resistance after subculture: maintained drug resistance
SW480-ssiCSC; vs control group cancer cells without DOX
  cell viability: higher cell viability than the cancer cells of the control group in which DOX was not treated
